Measurements: ChEMBL document CHEMBL4346757, “Synthesis and biological evaluation of 7-methoxy-1-(3,4,5-trimethoxyphenyl)-4,5-dihydro-2H-benzo[e]indazoles as new colchicine site inhibitors” (Bioorg Med Chem Lett, 2019)

Legend:
Assay type in all cases: functional
[1] = tested on: NCI/ADR-RES; experiment: Growth inhibition of human NCI-ADR-RES cells assessed as cell growth at 10 uM after 48 hrs by SRB assay relative to control; conditions: read-out: Activity
[2] = tested on: BT-549; experiment: Growth inhibition of human BT549 cells assessed as cell growth at 0.01 uM after 48 hrs by SRB assay relative to control; conditions: BT-549, 48 h, read-out: Activity
[3] = tested on: HCC 2998; experiment: Growth inhibition of human HCC2998 cells assessed as cell growth at 1 uM after 48 hrs by SRB assay relative to control; conditions: HCC 2998, 48 h, read-out: Activity
[4] = tested on: OVCAR-3; experiment: Growth inhibition of human OVCAR3 cells assessed as cell growth at 10 uM after 48 hrs by SRB assay relative to control; conditions: OVCAR-3, 48 h, read-out: Activity
[5] = tested on: IGROV-1; experiment: Cytotoxicity against human IGROV1 cells assessed as growth inhibition after 48 hrs by SRB assay; conditions: IGROV-1, 48 h
[6] = tested on: MCF7; experiment: Cytotoxicity against human MCF7 cells assessed as growth inhibition after 48 hrs by SRB assay; conditions: MCF7, 48 h
[7] = tested on: IGROV-1; experiment: Growth inhibition of human IGROV1 cells assessed as cell growth at 0.1 uM after 48 hrs by SRB assay relative to control; conditions: IGROV-1, 48 h, read-out: Activity
[8] = tested on: NCI-H460; experiment: Growth inhibition of human NCI-H460 cells assessed as cell growth at 0.01 uM after 48 hrs by SRB assay relative to control; conditions: NCI-H460, 48 h, read-out: Activity
[9] = tested on: OVCAR-3; experiment: Growth inhibition of human OVCAR3 cells assessed as cell growth at 0.1 uM after 48 hrs by SRB assay relative to control; conditions: OVCAR-3, 48 h, read-out: Activity
[10] = tested on: HCT-15; experiment: Growth inhibition of human HCT15 cells assessed as cell growth at 100 uM after 48 hrs by SRB assay relative to control; conditions: HCT-15, 48 h, read-out: Activity
[11] = tested on: SK-MEL-28; experiment: Growth inhibition of human SK-MEL-28 cells assessed as cell growth at 100 uM after 48 hrs by SRB assay relative to control; conditions: SK-MEL-28, 48 h, read-out: Activity
[12] = tested on: SNB-19; experiment: Growth inhibition of human SNB19 cells assessed as cell growth at 0.01 uM after 48 hrs by SRB assay relative to control; conditions: SNB-19, 48 h, read-out: Activity
[13] = tested on: UACC-257; experiment: Growth inhibition of human UACC257 cells assessed as cell growth at 0.1 uM after 48 hrs by SRB assay relative to control; conditions: UACC-257, 48 h, read-out: Activity
[14] = tested on: PC-3; experiment: Cytotoxicity against human PC3 cells assessed as growth inhibition after 48 hrs by SRB assay; conditions: PC-3, 48 h
[15] = tested on: MCF7; experiment: Growth inhibition of human MCF7 cells assessed as cell growth at 0.01 uM after 48 hrs by SRB assay relative to control; conditions: MCF7, 48 h, read-out: Activity
[16] = tested on: EKVX; experiment: Cytotoxicity against human EKVX cells assessed as growth inhibition after 48 hrs by SRB assay
[17] = tested on: OVCAR-4; experiment: Growth inhibition of human OVCAR4 cells assessed as cell growth at 10 uM after 48 hrs by SRB assay relative to control; conditions: OVCAR-4, 48 h, read-out: Activity
[18] = tested on: ACHN; experiment: Growth inhibition of human ACHN cells assessed as cell growth at 10 uM after 48 hrs by SRB assay relative to control; conditions: read-out: Activity
[19] = tested on: SK-OV-3; experiment: Growth inhibition of human SKOV3 cells assessed as cell growth at 1 uM after 48 hrs by SRB assay relative to control; conditions: SK-OV-3, 48 h, read-out: Activity
[20] = tested on: RPMI-8226; experiment: Growth inhibition of human RPMI8226 cells assessed as cell growth at 100 uM after 48 hrs by SRB assay relative to control; conditions: RPMI-8226, 48 h, read-out: Activity
[21] = tested on: NCI-H23; experiment: Growth inhibition of human NCI-H23 cells assessed as cell growth at 1 uM after 48 hrs by SRB assay relative to control; conditions: NCI-H23, 48 h, read-out: Activity
[22] = tested on: SNB-19; experiment: Cytotoxicity against human SNB19 cells assessed as growth inhibition after 48 hrs by SRB assay; conditions: SNB-19, 48 h
[23] = tested on: MOLT-4; experiment: Cytotoxicity against human MOLT4 cells assessed as growth inhibition after 48 hrs by SRB assay; conditions: MOLT-4, 48 h
[24] = tested on: COLO 205; experiment: Growth inhibition of human COLO205 cells assessed as cell growth at 1 uM after 48 hrs by SRB assay relative to control; conditions: COLO 205, 48 h, read-out: Activity
[25] = tested on: SF-295; experiment: Growth inhibition of human SF295 cells assessed as cell growth at 10 uM after 48 hrs by SRB assay relative to control; conditions: SF-295, 48 h, read-out: Activity
[26] = tested on: SF-539; experiment: Growth inhibition of human SF539 cells assessed as cell growth at 0.01 uM after 48 hrs by SRB assay relative to control; conditions: SF-539, 48 h, read-out: Activity
[27] = tested on: PC-3; experiment: Growth inhibition of human PC3 cells assessed as cell growth at 0.1 uM after 48 hrs by SRB assay relative to control; conditions: PC-3, 48 h, read-out: Activity
[28] = tested on: SR; experiment: Growth inhibition of human SR cells assessed as cell growth at 100 uM after 48 hrs by SRB assay relative to control; conditions: read-out: Activity
[29] = tested on: NCI-H23; experiment: Growth inhibition of human NCI-H23 cells assessed as cell growth at 100 uM after 48 hrs by SRB assay relative to control; conditions: NCI-H23, 48 h, read-out: Activity
[30] = tested on: SK-MEL-5; experiment: Growth inhibition of human SK-MEL-5 cells assessed as cell growth at 0.01 uM after 48 hrs by SRB assay relative to control; conditions: SK-MEL-5, 48 h, read-out: Activity
[31] = read-out: LC50 (the source's name)
[32] = read-out: pLC50 (the source's name) (converted)

`COc1ccc2c(c1)CCc1n[nH]c(-c3cc(OC)c(OC)c(OC)c3)c1-2` was tested, and the growth at 10 µM [1] was -11%, the growth at 0.01 µM [2] was 4% and the growth at 1 µM [3] was 14%. For the same compound, the growth at 10 µM [4] was 12%, the GI50 ([5]; read-out: GI50) was less than 0.01 µM and the CC50 [5, 31] was greater than 100 µM. The TGI ([5]; read-out: TGI) was 23.7 µM, the GI50 ([5]; read-out: pGI50 (converted)) was less than 0.01 µM and the CC50 [5, 32] was greater than 100 µM. It also gave a TGI ([5]; read-out: pTGI (converted)) of 24 µM, a GI50 ([6]; read-out: GI50) of less than 0.01 µM and an LC50 ([6]; read-out: LC50) greater than 100 µM. For the same compound, the TGI ([6]; read-out: TGI) was 12.9 µM, the GI50 ([6]; read-out: pGI50 (converted)) was less than 0.01 µM and the LC50 ([6]; read-out: pLC50 (converted)) was greater than 100 µM. It also gave a TGI ([6]; read-out: pTGI (converted)) of 12.9 µM, a growth at 0.1 µM [7] of 29% and a growth at 0.01 µM [8] of 3%. The growth at 0.1 µM [9] was 12%, the growth at 100 µM [10] was -41% and the growth at 100 µM [11] was -66%. For the same compound, the growth at 0.01 µM [12] was 33%, the growth at 0.1 µM [13] was 51% and the GI50 ([14]; read-out: GI50) was less than 0.01 µM. The CC50 [14, 31] was greater than 100 µM, the TGI ([14]; read-out: TGI) was 17.8 µM and the GI50 ([14]; read-out: pGI50 (converted)) was less than 0.01 µM. For the same compound, the CC50 [14, 32] was greater than 100 µM, the TGI ([14]; read-out: pTGI (converted)) was 17.8 µM and the growth at 0.01 µM [15] was 17%. It also gave a CC50 [16, 31] greater than 100 µM, a TGI ([16]; read-out: TGI) of 39 µM and a CC50 [16, 32] greater than 100 µM. It also gave a TGI ([16]; read-out: pTGI (converted)) of 38.9 µM, a growth at 10 µM [17] of 35% and a growth at 10 µM [18] of 15%. The growth at 1 µM [19] was -5%, the growth at 100 µM [20] was 15% and the growth at 1 µM [21] was 7%. For the same compound, the GI50 ([22]; read-out: GI50) was less than 0.01 µM, the CC50 [22, 31] was greater than 100 µM and the TGI ([22]; read-out: TGI) was 46.3 µM. It also gave a GI50 ([22]; read-out: pGI50 (converted)) of less than 0.01 µM, a CC50 [22, 32] greater than 100 µM and a TGI ([22]; read-out: pTGI (converted)) of 46.8 µM. For the same compound, the GI50 ([23]; read-out: GI50) was less than 0.01 µM, the CC50 [23, 31] was greater than 100 µM and the TGI ([23]; read-out: TGI) was greater than 100 µM. For the same compound, the GI50 ([23]; read-out: pGI50 (converted)) was less than 0.01 µM, the CC50 [23, 32] was greater than 100 µM and the TGI ([23]; read-out: pTGI) was greater than 100 µM. It also gave a growth at 1 µM [24] of -56%, a growth at 10 µM [25] of -5% and a growth at 0.01 µM [26] of -12%. For the same compound, the growth at 0.1 µM [27] was 19%, the growth at 100 µM [28] was -15% and the growth at 100 µM [29] was -42%. It also gave a growth at 0.01 µM [30] of -6%.
